The supplement of paper PMC10307832

Tests used:
Experiment in all cases: relative viability (nuclei count vs DMSO), 5 days (fraction); higher = more cells survive
[1] = compound: CCC1=CN=CN=C1N2CCN(CC2)CC3=NC4=C(N3)C=C(C=C4)C(F)(F)F + Cc1cc(Nc2cc(N3CCN(C)CC3)nc(Sc3ccc(NC(=O)C4CC4)cc3)n2)n[nH]1 [Tozasertib] (partner 0.1 µM)
How it was run: (§1)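 Relative viability divides the nuclei count in treated wells by that in vehicle wells. Lung cancer cell lines were seeded in 1536-well plates, dosed by pin tool the next day, and fixed and stained after 5 days in one step with final 0.05% Triton X-100, 1% formaldehyde and 1 ug/ml Hoechst. Dosing was a single drug or a fixed anchor-drug dose plus five library-drug doses (not always all listed) in √10 steps, and values are medians of duplicate plates imaged at 4×.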

[2] = compound: CCC1=CN=CN=C1N2CCN(CC2)CC3=NC4=C(N3)C=C(C=C4)C(F)(F)F + O=C(CCCCCCC(=O)Nc1ccccc1)NO [Vorinostat] (partner 1 µM)
How it was run: as §1

[3] = compound: CCn1c(-c2nonc2N)nc2cnc(Oc3cccc(NC(=O)c4ccc(OCCN5CCOCC5)cc4)c3)cc21 + C[C@]1(O)C[C@@H](c2nc(-c3ccc4ccc(-c5ccccc5)nc4c3)c3c(N)nccn32)C1 [Linsitinib] (partner 1 µM)
How it was run: as §1

[4] = compound: N=C1NC(=O)/C(=C/c2ccc(O)cc2)S1 [Mirin] + N=C(N)NC(=N)NCCc1ccccc1 [Phenformin] (partner 250 µM)
How it was run: as §1

| Cell Line | relative viability ([1]; first compound 0.04 µM) | relative viability ([1]; first compound 0.1265 µM) | relative viability ([1]; first compound 0.4 µM) | relative viability ([1]; first compound 1.265 µM) | relative viability ([1]; first compound 4 µM) | relative viability ([2]; first compound 0.04 µM) | relative viability ([2]; first compound 0.1265 µM) | relative viability ([2]; first compound 0.4 µM) | relative viability ([2]; first compound 1.265 µM) | relative viability ([2]; first compound 4 µM) | relative viability ([3]; first compound 0.04 µM) | relative viability ([3]; first compound 0.1265 µM) | relative viability ([3]; first compound 0.4 µM) | relative viability ([3]; first compound 1.265 µM) | relative viability ([3]; first compound 4 µM) | relative viability ([4]; first compound 0.25 µM) | relative viability ([4]; first compound 0.7906 µM) | relative viability ([4]; first compound 2.5 µM) | relative viability ([4]; first compound 7.906 µM) | relative viability ([4]; first compound 25 µM) |
| --- | --- | --- | --- | --- | --- | --- | --- | --- | --- | --- | --- | --- | --- | --- | --- | --- | --- | --- | --- | --- |
| NCI-H1666 | 0.556 | 0.723 | 0.575 | 0.569 | 0.635 | 1.04 | 1.04 | 0.843 | 0.922 | 0.994 | 0.797 | 0.985 | 0.949 | 0.667 | 0.413 | 0.568 | 0.62 | 0.598 | 0.539 | 0.49 |
| NCI-H1734 | 0.267 | 0.248 | 0.253 | 0.283 | 0.261 | 0.734 | 0.803 | 0.783 | 0.7 | 0.814 | 1.06 | 0.796 | 0.807 | 0.648 | 0.485 | 0.395 | 0.324 | 0.35 | 0.394 | 0.352 |
| NCI-H1755 | 0.627 | 0.503 | 0.596 | 0.515 | 0.521 | 0.741 | 0.699 | 0.641 | 0.514 | 0.827 | 1.08 | 1.01 | 0.936 | 0.963 | 0.937 | 0.617 | 0.595 | 0.683 | 0.63 | 0.678 |
| NCI-H1793 | 0.352 | 0.325 | 0.303 |  | 0.256 | 0.568 | 0.668 | 0.531 | 0.536 | 0.647 | 0.572 | 0.801 | 0.915 | 0.715 | 0.513 | 0.447 |  | 0.362 | 0.287 | 0.374 |
| NCI-H1915 | 0.458 | 0.412 | 0.429 | 0.356 | 0.356 | 0.591 | 0.51 | 0.496 | 0.492 | 0.559 | 1.16 | 1.11 | 1.07 | 1.07 | 1.06 | 0.353 |  | 0.364 | 0.356 | 0.386 |
| NCI-H1944 | 0.269 | 0.249 | 0.212 | 0.218 | 0.223 | 0.664 | 0.441 | 0.663 | 0.384 | 0.524 | 1.31 | 1.18 |  | 1.14 | 1.16 | 0.206 | 0.227 | 0.186 | 0.169 | 0.167 |
| NCI-H1975 | 0.732 | 0.785 | 0.679 | 0.61 | 0.689 | 0.796 | 0.703 | 0.704 | 0.654 | 0.687 | 0.833 | 0.65 | 0.895 | 0.385 | 0.293 | 0.448 | 0.375 | 0.452 | 0.452 | 0.425 |
| NCI-H1993 | 0.627 | 0.509 | 0.597 | 0.566 | 0.493 | 0.846 | 0.983 | 0.648 | 0.816 | 0.964 | 0.701 | 0.762 |  | 0.699 | 0.702 | 0.459 |  | 0.517 | 0.586 | 0.623 |
| NCI-H2009 | 0.778 | 0.698 | 0.727 | 0.746 | 0.678 | 0.775 | 0.698 | 0.753 | 0.61 | 0.639 | 1.01 | 0.99 | 0.999 | 0.701 | 0.423 | 0.485 | 0.573 | 0.522 | 0.411 | 0.526 |
| NCI-H2023 | 0.33 | 0.383 | 0.343 | 0.297 | 0.325 | 0.561 | 0.575 | 0.649 | 0.556 | 0.776 | 0.802 | 0.694 | 0.71 | 0.566 | 0.482 | 0.419 | 0.461 | 0.442 | 0.426 | 0.418 |
| NCI-H2085 | 0.815 | 0.71 | 0.794 | 0.698 | 0.633 | 0.728 | 0.709 | 0.697 | 0.763 | 0.766 | 1.02 | 0.9 | 0.756 | 0.792 | 0.683 | 0.804 | 0.756 | 0.749 | 0.655 | 0.654 |
| NCI-H2087 | 0.26 | 0.243 | 0.221 | 0.182 | 0.146 | 0.929 | 0.881 | 0.707 | 0.659 | 0.638 |  | 0.682 | 0.762 | 0.747 | 0.828 | 0.494 | 0.559 | 0.454 | 0.429 | 0.613 |
| NCI-H2126 | 0.837 | 0.812 | 0.813 | 0.734 | 0.832 | 0.794 | 0.781 | 0.766 | 0.595 | 0.742 | 0.759 | 0.704 | 0.679 | 0.759 | 0.742 | 0.549 | 0.471 | 0.509 | 0.546 | 0.532 |
| NCI-H2228 | 0.252 | 0.249 | 0.22 | 0.335 | 0.253 |  | 0.63 | 0.587 | 0.693 | 0.496 | 1.3 | 0.912 | 0.906 | 0.992 | 0.51 | 0.377 | 0.299 | 0.303 | 0.295 | 0.309 |
| NCI-H2347 | 0.405 | 0.454 | 0.579 | 0.389 | 0.513 | 0.61 | 0.673 | 0.649 | 0.321 | 0.516 | 0.981 | 0.927 | 0.93 | 0.447 | 0.48 | 0.334 | 0.328 | 0.52 | 0.453 | 0.552 |
| NCI-H2405 | 0.779 | 0.759 | 0.741 |  | 0.685 | 1.03 | 0.961 | 0.925 |  | 1.12 | 0.955 | 0.568 | 0.417 | 0.31 | 0.263 | 0.395 | 0.392 | 0.392 | 0.346 | 0.37 |
| NCI-H3122 | 0.423 | 0.405 | 0.384 | 0.345 | 0.439 | 1.04 | 0.863 | 1.01 | 1.03 | 0.875 | 1.04 | 0.985 | 0.991 | 1 | 0.934 | 0.378 | 0.426 | 0.414 | 0.378 | 0.467 |
